In patent publication US12600696B2 (XENIOPRO GMBH, priority 2017, dated 2026):

Key:
Type in all cases: cell-based
[1] = system: Notch signaling (hNotch1ΔE, human Notch1 receptor) in HeLa cells; experiment: Notch reporter assay (luciferase luminescence readout in transfected HeLa cells); settings: Homo sapiens, 20 hours, relative to DMSO baseline level of 1.0, read-out: AVEw, weighted arithmetic mean of double-normalized Notch-reporter luciferase luminescence values (Activity Range)
Procedure, shortened: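 HeLa cells were transiently transfected for 24 h with membrane-tethered constitutively active hNotch1ΔE, a CSL-promoter Firefly luciferase reporter and constitutive SV40-Renilla luciferase. Compounds were then applied at 10 μM (0.1% DMSO) for 20 h. Firefly/Renilla dual-luciferase ratios were normalized to DMSO control (baseline 1.0), outliers were excluded, and replicate values were averaged across ≥3 independent experiments.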

[2] = system: HPEKp cells (human epidermal keratinocyte progenitors, pooled); experiment: alamarBlue proliferation assay with HPEKp cells; settings: 120 h, relative to DMSO basis level 1.0, read-out: weighted arithmetic mean (AVEw) of normalized fluorescence intensity, activity range
Description: (§1) The antiproliferative activities of compounds falling under formula I, formula II, formula III, formula IV and formula V were investigated on cells or cell lines originating from a disorder of the myeloid cell compartment, the neuroendocrine system, the cervix, and the mucosal epithelium, as well as from the skin epithelium. To this end, HL-60 cells, TT cells, HeLa cells, CAL-27 cells and human primary epidermal keratinocytes (HPEK) were seeded into 96-well plates suitable for fluorescence assays (CORNING #3598) at following initial cell numbers: 1000 cells per well for HL-60; 9000 cells per well for TT; 2000 cells per well for HeLa, 2000 cells per well for CAL-27, 2000 cells per well for HPEK. The cells were treated with compounds at indicated final concentrations (diluted from the 1000× stock-solutions in DMSO to a final DMSO concentration of 0.1% v/v) or with the empty carrier DMSO at 0.1% v/v as control for 5 days. At day 5 after starting the treatments the cells were subjected to the alamarBlue® Proliferation Assay (Bio-Rad Serotec GmbH, BUF012B) according to the protocol of the manufacturer. The readout was taken with a multi-well plate-reader in the fluorescence mode with applying a filter for excitation at 560 nm (band width 10 nm) and for emission at 590 nm (band width 10 nm). Resveratrol (RES) treatment was included as control for growth inhibition.
(§2) The assays were performed in duplicate or more replicates of independent single experiments each containing a six-fold replicate for every condition. For every individual plate, the measured fluorescence intensity values of the conditions with compound treatment were normalized against the corresponding equally weighted arithmetic mean of the fluorescence intensity values of the six DMSO treated control wells in order to obtain the relative values to a baseline level of 1.0. The statistical calculations were performed in analogy to the luciferase assay as described above. To this end, two independent outlier analyses were performed according to the methods by Peirce and Chauvenet (Ross, Journal of Engineering Technology 2003, 1-12). Outliers confirmed by at least one of the methods were excluded from the calculations but not more than one value out of six per compound within a single experiment. The weighted arithmetic mean AVEw for each compound was calculated from the normalized values over all independent replicates of the single experiments comprising the six replicates each. The corresponding standard deviation for the weighted arithmetic mean was calculated according to the method described by Bronstein et al. (Bronstein, Semendjajew, Musiol, Mühlig, Taschenbuch der Mathematik, 5th edition 2001 (German), publisher: Verlag Harri Deutsch, Frankfurt am Main and Thun) and was combined with the Gauß′ error propagation associated with the performed calculation for the normalization. The resulting standard deviation is herein referred to as “combined standard deviation”.
HPEKp cells were cultivated according to the protocol of the provider in CnT-Prime epithelial culture medium (CELLnTEC, #CnT-PR, a fully defined, low calcium formulation, completely free of animal or human-derived components) without addition of further components.
(§3) A compound is considered as a growth inhibitor of HPEKp cells, if—at a reference concentration of 10 μM—the weighted arithmetic mean of the normalized fluorescence intensity values after addition of the corresponding combined standard deviation amounts to 0.9 or lower, in particular to 0.8 or lower, 0.7 or lower, 0.6 or lower, 0.4 or lower, and 0.2 or lower, relative to the overall basis level of 1.0. The overall basis level was calculated as the weighted arithmetic mean of all normalized values from the DMSO control measurements in analogy to the calculations performed for the test-compounds. The corresponding combined standard deviation for the DMSO values amounts to less than 1·10^−2.

[3] = system: HL-60 cells (human acute myeloid leukemia cells); experiment: alamarBlue proliferation assay with HL-60 cells; settings: 120 h, 5 days, relative to DMSO baseline level of 1.0, read-out: AVEw, weighted arithmetic mean of normalized fluorescence intensity values (Activity Range), HL-60 proliferation
Procedure, shortened: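 HL-60 cells (1000/well, RPMI 1640 + 10% FBS) exposed to compound in 0.1% DMSO for 5 days, then alamarBlue fluorescence read (ex 560/em 590 nm). Signals normalized to six DMSO wells per plate (baseline 1.0); outliers removed by Peirce/Chauvenet; weighted mean with combined SD; inhibitor criterion judged at 20 μM reference concentration.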

[4] = system: CAL-27 cells (human tongue squamous cell carcinoma cells); experiment: alamarBlue proliferation assay with CAL-27 cells; settings: Homo sapiens, 120 h; for activity at 40 µM: relative to DMSO basis level 1.0, read-out: weighted arithmetic mean (AVEw) of normalized fluorescence intensity, activity range; for activity at 20 µM: 5 days, relative to DMSO baseline level of 1.0, read-out: AVEw, weighted arithmetic mean of normalized fluorescence intensity values (Activity Range), CAL-27 proliferation
Description: as §1, §2
CAL-27 cells were cultivated according to the protocol of the provider (but at 5% instead of 10% CO2) in DMEM medium (Fisherscientific, #11584456) containing 10% fetal bovine serum (Fisherscientific, #15517589).
as §3, with “of CAL-27” for “of HPEKp”, “of 20” for “of 10”

[5] = system: TT cells (human medullary thyroid carcinoma cells); experiment: alamarBlue proliferation assay with TT cells; settings: Homo sapiens, 120 h, 40 μM, relative to DMSO basis level 1.0, read-out: weighted arithmetic mean (AVEw) of normalized fluorescence intensity, activity range
Description: as §1, §2
TT cells were cultivated according to the protocol of the provider in F-12K medium (Fisherscientific, #11580556, or ATCC, #ATCC-30-2004) containing 10% fetal bovine serum (Fisherscientific, #15517589).
as §3, with “of TT” for “of HPEKp”, “of 40” for “of 10”

| Compound | fold induction at 10 µM [1] | activity at 10 µM [2] | activity at 20 µM [3] | activity at 40 µM [4] | activity at 40 µM [5] | activity at 20 µM [4] |
| --- | --- | --- | --- | --- | --- | --- |
| O=C(O)c1ccc(Oc2ccc(C3C[C@@H]4CC[C@H]3C4)cc2)nc1 (stereo partly drawn) [Compound 086, 6-(4-((1S,4R)-bicyclo[2.2.1]heptan-2-yl)phenoxy)nicotinic acid] | 1.1 to 1.2 | 60 to 70% | – | – | – | – |
| NC(=O)c1ccc(Oc2ccc(C34CC5CC(CC(C5)C3)C4)cc2)cc1 [Compound 161, 4-(4-((3r,5r,7r)-adamantan-1-yl)phenoxy)benzamide] | – | – | 20 to 40% | 20 to 40% | 40 to 60% | – |
| CCCCc1ccc(Oc2ccc(C(=O)NO)cc2)cc1 [Compound 167, 4-(4-butylphenoxy)-N-hydroxybenzamide] | – | – | 40 to 60% | 0 to 20% | 20 to 40% | 60 to 70% |
| O=C(NO)c1ccc(Oc2ccc(C3CC4CCC3CC4)cc2)cc1 (stereo not shown) [Compound 185, 4-(4-((1s,4s)-bicyclo[2.2.2]octan-2-yl)phenoxy)-N-hydroxybenzamide] | – | 0 to 20% | 0 to 20% | – | – | 0 to 20% |
| CNC(=O)c1ccc(Oc2ccc(C3C[C@@H]4CC[C@H]3C4)cc2)cc1 (stereo partly drawn) [Compound 210, 4-(4-((1S,4R)-bicyclo[2.2.1]heptan-2-yl)phenoxy)-N-methylbenzamide] | – | – | 20 to 40% | 0 to 20% | 60 to 70% | 70 to 80% |
| CN(C)C(=O)c1ccc(Oc2ccc(C3CC4CCC3CC4)cc2)cc1 (stereo not shown) [Compound 237, 4-(4-((1s,4s)-bicyclo[2.2.2]octan-2-yl)phenoxy)-N,N-dimethylbenzamide] | – | – | 20 to 40% | 20 to 40% | 40 to 60% | 40 to 60% |
| CNC(=O)c1ccc(Oc2ccc(C3CCCCC3)cc2)nc1 [Compound 309, 6-(4-cyclohexylphenoxy)-N-methylnicotinamide] | – | – | – | – | 80 to 90% | – |
| CCC(C)(C)c1ccc(Oc2ccc(C(=O)N(C)C)cn2)cc1 [Compound 323, N,N-dimethyl-6-(4-(tert-pentyl)phenoxy)nicotinamide] | 1.1 to 1.2 | 70 to 80% | 40 to 60% | – | – | – |
| CCC(C)(C)c1ccc(Oc2ccc(C(=O)OC)cc2F)cc1 [Compound 374, methyl 3-fluoro-4-(4-(tert-pentyl)phenoxy)benzoate] | 1.1 to 1.2 | 80 to 90% | 80 to 90% | – | – | – |
| O=C(O)c1cnc(Oc2ccc(C34CC5CC(CC(C5)C3)C4)cc2)c(F)c1 [Compound 440, 6-(4-((3r,5r,7r)-adamantan-1-yl)phenoxy)-5-fluoronicotinic acid] | – | 20 to 40% | 70 to 80% | – | – | – |
| CCOC(=O)c1ccc(Oc2ccc(C3(C(F)(F)F)CC3)cc2)cc1 [Compound 721, ethyl 4-(4-(1-(trifluoromethyl)cyclopropyl)phenoxy)benzoate] | 1.1 to 1.2 | 70 to 80% | 40 to 60% | – | – | – |
| CCOC(=O)c1ccc(Oc2ccc(C3(C(F)(F)C(F)(F)F)CC3)cc2)cc1 [Compound 722] | – | 40 to 60% | 40 to 60% | 70 to 80% | – | – |
| CCOC(=O)c1ccc(Oc2ccc(C3(C(F)(F)F)CC3)cc2Cl)cc1 [Compound 729, Ethyl 4-(2-chloro-4-(1-(trifluoromethyl)cyclopropyl)phenoxy)-benzoate] | – | – | 40 to 60% | 20 to 40% | 20 to 40% | – |
| O=C(O)c1ccc(Oc2ccc(C3(C(F)(F)C(F)(F)F)CC3)cc2)nc1 [Compound 731] | – | 80 to 90% | 80 to 90% | – | – | – |
| CCOC(=O)c1ccc(Oc2ccc(C3(C(F)(F)F)CC3)cc2)nc1 [Compound 748, ethyl 6-(4-(1-(trifluoromethyl)cyclopropyl)phenoxy)nicotinate] | – | – | – | – | 70 to 80% | – |
| O=C(NO)c1ccc(Oc2ccc(C3(C(F)(F)F)CC3)cc2)c(F)c1 [Compound 768, 3-fluoro-N-hydroxy-4-(4-(1-(trifluoromethyl)cyclopropyl)phenoxy)benzamide] | – | – | 0 to 20% | 20 to 40% | 0 to 20% | 20 to 40% |
| O=C(NO)c1ccc(Oc2ccc(C3(C(F)(F)F)CC3)cc2Cl)nc1 [Compound 810, 6-(2-chloro-4-(1-(trifluoromethyl)cyclopropyl)phenoxy)-N-hydroxynicotinamide] | – | 0 to 20% | 0 to 20% | – | – | 0 to 20% |
| CNC(=O)c1ccc(Oc2ccc(C3(C(F)(F)F)CC3)cc2Cl)nc1 [Compound 819] | – | 70 to 80% | 80 to 90% | – | – | – |
| CN(C)C(=O)c1ccc(Oc2ccc(C3(C(F)(F)F)CC3)cc2Cl)nc1 [Compound 828, 6-(2-chloro-4-(1-(trifluoromethyl)cyclopropyl)phenoxy)-N,N-dimethylnicotinamide] | – | 70 to 80% | 60 to 70% | – | – | – |
